The target in this assay is Kallikrein-1 (Homo sapiens, UniProt P06870). Description: Inhibition Assay. The protocol: Prior to the assay, human TK1 (R&D Systems) was activated by incubation with human trypsin (Calbiochem) in a 1:10,000 ratio for 15 min at 37° C. For assaying TK1 inhibitory activity, activated TK1 (31.25 nM or 1 U/mL) was incubated at 24° C. with 0.1 mM fluorogenic substrate H-Pro-Phe-Arg-AMC (11295 from Bachem) and various concentrations of the test compound in assay buffer. Measurements were performed in a kinetic interval every 2nd minute for 16 min using a Spectramax M5 (Molecular Devices) with the following settings of the wavelength excitation of 350 nm and wavelength emission of 450 nm.
Kallikrein-1, sequence (P06870 whole entry): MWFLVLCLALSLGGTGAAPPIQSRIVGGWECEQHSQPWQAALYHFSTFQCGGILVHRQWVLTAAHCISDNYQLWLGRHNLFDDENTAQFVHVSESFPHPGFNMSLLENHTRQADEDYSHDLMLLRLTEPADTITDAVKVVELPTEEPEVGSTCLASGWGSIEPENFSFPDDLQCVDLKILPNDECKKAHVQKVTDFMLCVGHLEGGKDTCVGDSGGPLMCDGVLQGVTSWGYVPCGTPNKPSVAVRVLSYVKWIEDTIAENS

The term IC50 denotes the concentration at which inhibition is half-maximal. A low value points to inhibition by little substance.

For `Cc1nc(N2CC3C(C2)C3(F)F)ccc1Cn1cc(C(=O)N[C@@H]2CCc3c(C)n[nH]c32)c(C)n1` (stereo partly drawn) [US10695334, Example 18], the IC50 is > 10 µM.

On to `Cc1nc(N2CC3(CC3)C2)ccc1Cn1cc(C(=O)N[C@@H]2CCc3c(C)n[nH]c32)cn1` [US10695334, Example 11], for which the IC50 was > 10 µM.

In the case of `Cc1nc(N2CC3C(C2)C3(F)F)ncc1Cn1cc(C(=O)N[C@@H]2CCc3c2n[nH]c3C)cn1` (stereo partly drawn) [US10695334, Example 84], the IC50 was > 10 µM.

The values are drawn from BindingDB's records for patent US10695334 (Boehringer Ingelheim International, 2020).
